{"source": "patent US20040072915A1", "about": "“Novel medicines based on sesquiterpene mixtures” (priority 2000, published 2004)", "system": "MCF7 cells", "test": "Cell counts of MCF7 cells in culture with F, B or F+B (Example 1)", "type": "cell-based", "description": "Cells of line MCF7 are rapidly growing mammary adenocarcinoma cells. The doses tested in the study were 0.1.10^-3 and 0.5.10^-3 M. 1/100 dilutions were made in RPMT just before use and mixed to obtain a homogeneous emulsion at the moment of use. The mean number of cells inoculated was about 10^6 in each test. Test one: search for an effect on MCF7 cells at the dose of 0.5 mM. At the 11th transfer, the following were inoculated one bottle of MCF7 cells for growth, one bottle of MCF7 cells for the control, one bottle with the same number of calls +(F) at 0.5 mM, one bottle with the same number of cells +(F+B) at 0.5 mM, one bottle with the same number of cells +(B) at 0.5 mM. Bottles were placed in the incubator with caps unscrewed and the medium was changed every two days. On day 8, the cells were washed with 5 ml of PBS and freed from the substrate with PBS-EDTA, […] of RPMI+10% FCS and counted with a Malassez counting chamber. Test two: search of an effect on MCF7 cells at a dose of 0.1 mM. Same procedure as above is used but cells were used at the 12th transfer, using 0.1 mM doses of (F), (F+B) and (B).", "key": {"[1]": {"conditions": "test one, dose 0.5 mM, MCF7 cells counted on day 8, about 10^6 cells inoculated"}}, "data": [{"smiles": "CC(C)=CCC[C@](C)(O)[C@@H]1CC=C(C)CC1", "note": "[B, α-bisabolol]", "values": [{"measurement": "appearance of the culture bottle (adhering / floating dead cells)", "setting": "test one, 0.5 mM, MCF7", "result": "few adhering cells and a large numbers of floating (dead) cells"}, {"measurement": "cell counts", "setting": "[1]", "result": "250 · 10^3"}, {"measurement": "alteration of cell adherence in culture", "setting": "test run at 0.1 mM, MCF7", "result": "slight"}, {"measurement": "cell counts", "setting": "test two (test at 0.1 mM), line printed as B at 0.5 mM", "result": "8930 · 10^3"}, {"measurement": "appearance of the culture bottle (adhering / floating dead cells)", "setting": "test two, 0.1 mM, MCF7", "result": "adhering homogeneous layer of cells with several dead cells"}]}, {"smiles": "CC(C)=CCCC(C)=CCCC(C)=CCO", "note": "[F, Farnesol]", "values": [{"measurement": "appearance of the culture bottle (adhering / floating dead cells)", "setting": "test one, 0.5 mM, MCF7", "result": "few adhering cells and a large number of floating (dead) cells"}, {"measurement": "cell counts", "setting": "[1]", "result": "370 · 10^3"}, {"measurement": "appearance of the culture bottle (adhering / floating dead cells)", "setting": "test two, 0.1 mM, MCF7", "result": "few adhering cells and a large numbers of floating (dead) cells"}, {"measurement": "cell counts", "setting": "test two, dose 0.1 mM, MCF7 cells counted on day 8, about 10^6 cells inoculated", "result": "385 · 10^3"}]}]}
